According to US7482137B2, “Hybrid glycosylated products and their production and use” (Biotica Technology Limited, priority 2000, dated 2009):

Test system: Bacillus subtilis ATCC 6633
Assay: Filter disc bioassay, zones of inhibition in B. subtilis lawn
Assay type: cell-based
Settings: 10-fold dilution series of 1.1 mg in 200 μl methanol, 10 μl per filter disc; indicator strain Bacillus subtilis ATCC 6633
Method: Cosmid no 7 which has been isolated from a Streptomyces fradiae cosmid library, was kindly provided by J. Corts. E. coli transformants were selected with 100 ug/ml ampicillin. The Saccharopolyspora erythraea NRRL 2338-red variant strain (Hessler et al., Appl. Microbiol. Biotechnol. (1997) 47:398-404) was kindly provided by J. M. Weber and was routinely maintained on M1-102 agar (Kaneda et al. J. Biol. Chem. (1962) 237:322-327), R2T20 (Yamamoto et al. J. Antibiot. (1986) 34:1304-1313), R2T2 (same as R2T (Weber et al. J. Bacterial. (1985)164:425-433), but without peptone), and TSB (Difco) for liquid cultures at 30° C. Bacillus subtilis ATCC 6633 was used in bioassays to assess erythromycin production as described (Gaisser et al. (1997), supra). […] Both metabolites (10 μl of 10 mM stock solution) were applied to agar wells cut into the S. erythraea lawn and incubated at 30° C. overnight as described (Gaisser et al. (1997) supra) and the development of zones of inhibition in the B. subtilis lawn around S. erythraea colonies was assessed. […]
Bacillus subtilis ATCC 6633 was used in bioassays as described previously (Gaisser et al., 1998). […] The development of zones of inhibition in the B. subtilis lawn was assessed.

**Q.** For CCC1OC(=O)C(C)C(OC2OC(C)C(O)C(O)C2OC)C(C)C(OC2OC(C)CC(N(C)C)C2O)C(C)(O)CC(C)C(=O)C(C)C(O)C1C (stereo not shown) [3-O-(2′-O-methylrhamnosyl)erythromycin D], which “bioactivity, fold less compared to erythromycin A (size of the halos around filter discs)” value is on record?
**A.** about 100 fold
